What was measured:
[1] = biological target: Sodium channel protein type 2 subunit alpha (Homo sapiens, UniProt Q99250); test: Inhibition of human Nav1.2 expressed in HEK cells by patch clamp electrophysiology method; assay type: cell-based
[2] = biological target: Sodium channel protein type 4 subunit alpha (Homo sapiens, UniProt P35499); test: Inhibition of human Nav1.4 expressed in HEK cells by patch clamp electrophysiology method; assay type: cell-based
[3] = biological target: Sodium channel protein type 9 subunit alpha (Rattus norvegicus, UniProt O08562); test: Inhibition of rat Nav1.7 expressed in HEK cells by patch clamp electrophysiology method; assay type: cell-based
[4] = Unbound clearance rat plasma at 0.3 mg/kg, iv via infusion for 1 hr; assay type: ADME, organism-based; conditions: in vivo
[5] = Half-life in iv dosed mouse; assay type: ADME, organism-based; conditions: in vivo
Cytochrome P450 2C8 = Cytochrome P450 2C8 (Homo sapiens, UniProt P10632); test: Inhibition of CYP2C8 (unknown origin); assay type: ADME
Cytochrome P450 2C9 = Cytochrome P450 2C9 (Homo sapiens, UniProt P11712); test: Inhibition of CYP2C9 (unknown origin); assay type: ADME
Sequence of Cytochrome P450 2C9 (P11712 whole entry): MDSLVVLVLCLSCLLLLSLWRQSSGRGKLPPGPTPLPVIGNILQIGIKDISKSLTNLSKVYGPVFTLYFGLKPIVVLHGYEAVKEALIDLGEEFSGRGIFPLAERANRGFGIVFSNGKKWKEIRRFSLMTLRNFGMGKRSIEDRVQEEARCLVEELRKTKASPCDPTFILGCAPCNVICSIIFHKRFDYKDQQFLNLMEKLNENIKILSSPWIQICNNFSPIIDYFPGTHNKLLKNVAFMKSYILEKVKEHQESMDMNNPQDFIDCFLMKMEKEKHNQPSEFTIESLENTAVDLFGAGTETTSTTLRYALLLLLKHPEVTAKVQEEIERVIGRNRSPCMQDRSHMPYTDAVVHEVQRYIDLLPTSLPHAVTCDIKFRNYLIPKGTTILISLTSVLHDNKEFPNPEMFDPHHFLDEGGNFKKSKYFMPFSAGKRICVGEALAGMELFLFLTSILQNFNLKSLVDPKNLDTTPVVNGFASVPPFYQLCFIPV

[6] = Protein binding in human plasma assessed as fraction unbound; assay type: ADME, cell-free
[7] = Intrinsic clearance in rat liver microsomes; assay type: ADME, microsome; conditions: read-out: CLH
[8] = Permeability in RRCK cells; assay type: ADME, cell-based, Canis lupus familiaris, MDCKII-LE; conditions: dog, MDCK; read-out: permeability
[9] = biological target: Sodium channel protein type 11 subunit alpha (Homo sapiens, UniProt Q9UI33); test: Inhibition of human Nav1.9 expressed in HEK cells by automated patchXpress electrophysiology method; assay type: cell-based
[10] = biological target: Adenosine receptor A1 (Homo sapiens) (UniProt P30542); test: Agonist activity at recombinant human adenosine A1 receptor expressed in mouse BA/F3 cells assessed as increase in calcium flux at 10 uM by spectrophotometric method relative to control; assay type: functional, cell-based
[11] = biological target: Histamine H1 receptor (Homo sapiens) (UniProt P35367); test: Agonist activity at human H1 receptor expressed in HEK293 cells assessed as increase in calcium flux at 10 uM by fluorimetric method relative to control; assay type: functional, cell-based
Sequence of Histamine H1 receptor (Homo sapiens) (P35367 whole entry): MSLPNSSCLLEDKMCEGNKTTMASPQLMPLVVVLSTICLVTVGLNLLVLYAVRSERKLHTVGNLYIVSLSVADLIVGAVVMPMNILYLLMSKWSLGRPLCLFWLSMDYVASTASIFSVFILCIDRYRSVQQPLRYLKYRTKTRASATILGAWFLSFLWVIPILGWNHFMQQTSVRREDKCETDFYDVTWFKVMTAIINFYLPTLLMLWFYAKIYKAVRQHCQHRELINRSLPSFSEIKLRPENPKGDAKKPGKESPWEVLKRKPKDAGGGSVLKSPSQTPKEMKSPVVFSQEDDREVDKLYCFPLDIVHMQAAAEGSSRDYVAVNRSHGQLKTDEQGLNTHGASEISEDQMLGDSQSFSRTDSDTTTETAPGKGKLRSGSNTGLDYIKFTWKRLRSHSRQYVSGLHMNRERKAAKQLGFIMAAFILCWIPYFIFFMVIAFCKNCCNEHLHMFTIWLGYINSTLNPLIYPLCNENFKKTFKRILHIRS

[12] = biological target: T1, Muscarinic acetylcholine receptor M1 (Homo sapiens) (UniProt P11229); test: Agonist activity at human M1 receptor expressed in CHOK1 cells assessed as increase in calcium flux at 10 uM by fluorimetric method relative to control; assay type: functional, cell-based
T1 sequence (whole entry): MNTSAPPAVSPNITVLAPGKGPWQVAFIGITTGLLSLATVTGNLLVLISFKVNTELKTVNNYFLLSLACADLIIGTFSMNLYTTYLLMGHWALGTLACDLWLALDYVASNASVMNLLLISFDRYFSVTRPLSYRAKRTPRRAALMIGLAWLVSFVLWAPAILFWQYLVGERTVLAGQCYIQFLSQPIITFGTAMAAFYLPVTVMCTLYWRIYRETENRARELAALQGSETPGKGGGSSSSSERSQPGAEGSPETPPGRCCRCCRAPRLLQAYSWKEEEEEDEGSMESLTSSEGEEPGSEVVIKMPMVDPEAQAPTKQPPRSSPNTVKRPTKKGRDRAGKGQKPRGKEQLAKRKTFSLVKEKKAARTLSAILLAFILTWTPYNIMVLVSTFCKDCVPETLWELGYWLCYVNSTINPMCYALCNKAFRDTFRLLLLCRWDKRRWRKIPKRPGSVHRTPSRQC

[13] = biological target: Muscarinic acetylcholine receptor M2 (Homo sapiens) (UniProt P08172); test: Agonist activity at recombinant human M2 receptor expressed in CHOK1 cells assessed as increase in cAMP accumulation at 10 uM measured after 10 mins by HTRF assay relative to control; assay type: functional, cell-based
Sequence of Muscarinic acetylcholine receptor M2 (Homo sapiens) (P08172 whole entry): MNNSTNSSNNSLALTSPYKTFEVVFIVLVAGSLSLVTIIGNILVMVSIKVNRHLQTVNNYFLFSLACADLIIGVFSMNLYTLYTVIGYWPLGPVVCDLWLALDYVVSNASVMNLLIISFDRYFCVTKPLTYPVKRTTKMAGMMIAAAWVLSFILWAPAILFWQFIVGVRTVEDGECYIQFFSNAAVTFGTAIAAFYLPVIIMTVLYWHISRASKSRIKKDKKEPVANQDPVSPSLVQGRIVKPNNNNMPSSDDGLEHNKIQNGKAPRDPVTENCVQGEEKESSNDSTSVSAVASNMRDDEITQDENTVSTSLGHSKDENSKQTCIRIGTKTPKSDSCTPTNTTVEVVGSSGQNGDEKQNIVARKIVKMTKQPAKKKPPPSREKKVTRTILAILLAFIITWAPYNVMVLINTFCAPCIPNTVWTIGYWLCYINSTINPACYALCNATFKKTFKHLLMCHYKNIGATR

[14] = biological target: Muscarinic acetylcholine receptor M3 (Homo sapiens) (UniProt P20309); test: Agonist activity at human M3 receptor expressed in CHOK1 cells assessed as increase in calcium flux at 10 uM by fluorimetric method relative to control; assay type: functional, cell-based
[15] = biological target: 5-hydroxytryptamine receptor 2A (Homo sapiens) (UniProt P28223); test: Agonist activity at human 5-HT2A receptor expressed in HEK293 cells assessed as increase in IP1 accumulation at 10 uM measured after 30 mins by HTRF method relative to control; assay type: functional, cell-based
Sequence of 5-hydroxytryptamine receptor 2A (Homo sapiens) (P28223 whole entry): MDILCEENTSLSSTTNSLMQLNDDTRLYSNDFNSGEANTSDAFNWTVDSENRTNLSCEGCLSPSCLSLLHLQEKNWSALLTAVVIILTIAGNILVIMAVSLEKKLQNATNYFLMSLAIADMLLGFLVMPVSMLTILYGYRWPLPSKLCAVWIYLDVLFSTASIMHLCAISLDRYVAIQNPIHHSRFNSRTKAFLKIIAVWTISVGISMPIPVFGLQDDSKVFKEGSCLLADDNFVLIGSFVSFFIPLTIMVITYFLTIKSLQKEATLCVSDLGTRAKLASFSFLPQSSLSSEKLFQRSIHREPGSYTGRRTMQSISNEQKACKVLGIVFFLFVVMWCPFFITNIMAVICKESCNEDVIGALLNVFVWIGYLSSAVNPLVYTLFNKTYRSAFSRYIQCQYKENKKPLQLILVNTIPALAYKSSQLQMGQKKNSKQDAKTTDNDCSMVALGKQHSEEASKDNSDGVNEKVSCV

[16] = biological target: D(1A) dopamine receptor (Homo sapiens) (UniProt P21728); test: Antagonist activity at recombinant human D1 receptor expressed in CHOK1 cells assessed as inhibition of dopamine-induced cAMP accumulation at 10 uM after 30 mins by HTRF assay relative to control; assay type: functional, cell-based
Sequence of D(1A) dopamine receptor (Homo sapiens) (P21728 whole entry): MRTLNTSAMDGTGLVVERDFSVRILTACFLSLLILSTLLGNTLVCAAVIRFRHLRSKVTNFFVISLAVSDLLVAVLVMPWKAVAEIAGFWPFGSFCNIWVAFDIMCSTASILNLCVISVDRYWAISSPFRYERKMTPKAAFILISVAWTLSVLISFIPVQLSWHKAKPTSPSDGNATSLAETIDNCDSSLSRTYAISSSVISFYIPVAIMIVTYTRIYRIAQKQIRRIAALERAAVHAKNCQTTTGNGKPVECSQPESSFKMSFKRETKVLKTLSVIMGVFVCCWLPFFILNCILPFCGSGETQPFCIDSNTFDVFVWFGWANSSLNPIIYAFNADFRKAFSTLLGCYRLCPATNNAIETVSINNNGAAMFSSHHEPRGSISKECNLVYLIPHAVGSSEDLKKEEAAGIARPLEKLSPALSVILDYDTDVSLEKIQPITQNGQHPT

[17] = biological target: D(2) dopamine receptor (Homo sapiens) (UniProt P14416); test: Antagonist activity at recombinant human D2S receptor expressed in HEK293 cells assessed as inhibition of dopamine-induced cell impedance at 10 uM by cellular dielectric spectroscopic method relative to control; assay type: cell-based
Homo sapiens = species: Homo sapiens; test: Inhibition of GABA-A receptor benzodiazepine site (unknown origin) at 10 uM by radioligand binding assay relative to control
Rattus norvegicus = species: Rattus norvegicus; test: Displacement of [3H]AMPA from rat brain AMPA receptor at 10 uM after 60 mins by scintillation counting method
[18] = biological target: Glutamate NMDA receptor (Rattus norvegicus) (UniProt P35439+Q00959+Q00960+Q00961+Q62645+Q8VHN2+Q9R1M7); test: Displacement of [3H]CGP 39653 from rat brain NMDA receptor at 10 uM after 60 mins by scintillation counting method
[19] = biological target: 5-hydroxytryptamine receptor 3A (Homo sapiens) (UniProt P46098); test: Displacement of [3H]BRL 43694 from recombinant human 5-HT3 receptor at 10 uM measured after 120 mins by scintillation counting method
[20] = biological target: Glucocorticoid receptor (Homo sapiens) (UniProt P04150); test: Displacement of [3H]dexamethasone from human glucocorticoid receptor at 10 uM after 360 mins by scintillation counting method
[21] = biological target: Beta-2 adrenergic receptor (Homo sapiens) (UniProt P07550); test: Displacement of [3H](-)CGP12177 from recombinant human beta2 receptor at 10 uM after 120 mins by scintillation counting method
[22] = biological target: Cannabinoid receptor 1 (Homo sapiens) (UniProt P21554); test: Displacement of [3H]CP 55940 from recombinant human CB1 receptor at 10 uM after 120 mins by scintillation counting method
[23] = biological target: D(1A) dopamine receptor (Homo sapiens) (UniProt P21728); test: Displacement of [3H]SCH 23390 from recombinant human D1 receptor at 10 uM after 60 mins by scintillation counting method
[24] = biological target: Histamine H1 receptor (Homo sapiens) (UniProt P35367); test: Displacement of [3H]pyrilamine from recombinant human H1 receptor at 10 uM after 60 mins by scintillation counting method
[25] = biological target: Sodium channel protein type 5 subunit alpha (Homo sapiens, UniProt Q14524); test: Inhibition of human Nav1.5 by Q-patch clamp electrophysiology method
Sequence of Sodium channel protein type 5 subunit alpha (Q14524 whole entry): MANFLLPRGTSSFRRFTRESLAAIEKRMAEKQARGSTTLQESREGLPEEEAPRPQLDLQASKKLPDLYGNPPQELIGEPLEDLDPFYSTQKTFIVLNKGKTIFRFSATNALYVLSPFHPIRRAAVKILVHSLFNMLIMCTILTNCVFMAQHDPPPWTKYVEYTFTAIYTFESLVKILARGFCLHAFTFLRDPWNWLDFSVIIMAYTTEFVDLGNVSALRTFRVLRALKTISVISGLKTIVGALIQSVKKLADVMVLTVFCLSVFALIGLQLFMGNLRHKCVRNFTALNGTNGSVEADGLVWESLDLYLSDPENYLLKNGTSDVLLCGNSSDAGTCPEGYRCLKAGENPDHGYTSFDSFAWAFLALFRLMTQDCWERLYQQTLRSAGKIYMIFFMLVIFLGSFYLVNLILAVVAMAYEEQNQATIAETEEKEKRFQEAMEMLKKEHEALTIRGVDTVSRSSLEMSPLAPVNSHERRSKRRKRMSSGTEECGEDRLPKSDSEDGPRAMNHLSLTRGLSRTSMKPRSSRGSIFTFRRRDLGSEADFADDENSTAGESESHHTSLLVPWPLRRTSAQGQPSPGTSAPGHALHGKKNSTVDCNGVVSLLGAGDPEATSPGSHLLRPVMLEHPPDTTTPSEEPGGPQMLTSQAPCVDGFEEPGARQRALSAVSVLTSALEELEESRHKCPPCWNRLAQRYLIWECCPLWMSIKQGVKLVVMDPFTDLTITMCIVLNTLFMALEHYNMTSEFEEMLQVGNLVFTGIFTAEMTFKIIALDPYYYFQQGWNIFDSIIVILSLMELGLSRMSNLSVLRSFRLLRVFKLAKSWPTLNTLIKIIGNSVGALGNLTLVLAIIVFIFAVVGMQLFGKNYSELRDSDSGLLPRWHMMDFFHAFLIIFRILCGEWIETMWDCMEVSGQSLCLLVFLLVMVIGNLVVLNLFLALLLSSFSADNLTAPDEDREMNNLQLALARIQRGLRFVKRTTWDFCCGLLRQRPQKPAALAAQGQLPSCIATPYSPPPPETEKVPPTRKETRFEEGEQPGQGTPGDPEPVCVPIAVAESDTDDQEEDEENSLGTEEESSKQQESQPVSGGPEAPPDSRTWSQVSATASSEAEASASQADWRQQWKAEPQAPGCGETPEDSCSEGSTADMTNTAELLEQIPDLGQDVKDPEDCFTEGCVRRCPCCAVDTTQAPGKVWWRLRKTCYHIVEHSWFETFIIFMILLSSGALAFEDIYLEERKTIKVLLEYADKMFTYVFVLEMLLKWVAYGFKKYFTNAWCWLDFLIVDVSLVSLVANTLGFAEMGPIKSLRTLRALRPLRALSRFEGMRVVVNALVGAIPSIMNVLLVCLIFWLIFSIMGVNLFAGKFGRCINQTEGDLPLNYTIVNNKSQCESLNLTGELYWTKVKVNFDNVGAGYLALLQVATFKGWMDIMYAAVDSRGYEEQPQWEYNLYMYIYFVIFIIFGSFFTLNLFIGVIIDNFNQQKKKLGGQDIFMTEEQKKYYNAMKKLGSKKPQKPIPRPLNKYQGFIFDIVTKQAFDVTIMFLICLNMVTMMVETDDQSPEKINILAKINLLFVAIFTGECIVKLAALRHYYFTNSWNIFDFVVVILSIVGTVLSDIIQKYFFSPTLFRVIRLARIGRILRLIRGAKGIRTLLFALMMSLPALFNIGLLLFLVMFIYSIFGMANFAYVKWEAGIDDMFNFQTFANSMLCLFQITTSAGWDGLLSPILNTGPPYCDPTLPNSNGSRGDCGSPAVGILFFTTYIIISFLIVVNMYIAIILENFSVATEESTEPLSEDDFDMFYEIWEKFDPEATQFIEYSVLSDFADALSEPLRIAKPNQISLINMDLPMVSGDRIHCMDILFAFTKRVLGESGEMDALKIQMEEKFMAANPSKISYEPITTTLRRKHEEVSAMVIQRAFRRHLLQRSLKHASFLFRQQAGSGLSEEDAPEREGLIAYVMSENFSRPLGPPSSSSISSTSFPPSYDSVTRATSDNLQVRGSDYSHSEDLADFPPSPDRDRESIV

[26] = Inhibition of sodium channel site2 (unknown origin) by radioligand binding assay relative to control; parameters: species or system Homo sapiens
[27] = biological target: Sodium-dependent dopamine transporter (Homo sapiens, UniProt Q01959); test: Displacement of [3H]BTCP from recombinant human dopamine transporter after 120 mins by scintillation counting method
Sequence of Sodium-dependent dopamine transporter (Q01959 whole entry): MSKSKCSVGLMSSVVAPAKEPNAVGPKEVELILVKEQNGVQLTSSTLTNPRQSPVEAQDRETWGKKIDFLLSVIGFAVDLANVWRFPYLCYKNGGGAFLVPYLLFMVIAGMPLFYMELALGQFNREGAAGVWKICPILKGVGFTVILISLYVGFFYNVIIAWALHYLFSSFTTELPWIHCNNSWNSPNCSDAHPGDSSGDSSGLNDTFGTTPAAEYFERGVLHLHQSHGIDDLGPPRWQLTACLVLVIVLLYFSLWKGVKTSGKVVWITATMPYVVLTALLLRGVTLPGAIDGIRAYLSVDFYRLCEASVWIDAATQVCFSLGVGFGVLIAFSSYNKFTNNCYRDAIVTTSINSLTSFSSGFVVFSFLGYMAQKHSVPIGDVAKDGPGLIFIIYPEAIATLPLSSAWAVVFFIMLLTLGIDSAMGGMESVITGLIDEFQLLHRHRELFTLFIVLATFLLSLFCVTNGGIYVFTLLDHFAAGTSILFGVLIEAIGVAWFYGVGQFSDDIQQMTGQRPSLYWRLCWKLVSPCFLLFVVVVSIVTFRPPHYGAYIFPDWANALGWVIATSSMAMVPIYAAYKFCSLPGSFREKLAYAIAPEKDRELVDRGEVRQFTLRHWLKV

N#Cc1cc(S(=O)(=O)Nc2ncns2)ccc1Oc1ccc(-c2cccc(C(F)(F)F)c2)cc1-c1ccnc(CNCCC2CCNCC2)c1
IC50 [1]: 2.52 to 3 nM | IC50 [2]: 1450 nM | IC50 [3]: 75 nM | CL free [4]: 1813.1 L/h/kg | half-life [5]: 39.6 min | IC50 (Cytochrome P450 2C8): 6170 nM | IC50 (Cytochrome P450 2C9): 3750 nM | fraction unbound [6]: 0.00497 | microsomal CLint [7]: < 14.1 µL/min/mg | Papp [8]: 0.62 ×10⁻⁶ cm/s | IC50 [9]: > 10000 nM | Activity [10]: 107% | Activity [11]: 4% | Activity [12]: 2% | Activity [13]: -9% | Activity [14]: 8% | Activity [15]: -1% | inhibition [16]: 30% | inhibition [17]: 31% | inhibition (Homo sapiens): 35% | inhibition (Rattus norvegicus): -1% | inhibition [18]: 21% | inhibition [19]: 27% | inhibition [20]: 36.1% | inhibition [21]: 4% | inhibition [22]: 21% | inhibition [23]: 60% | inhibition [24]: 29% | IC50 [25]: 12800 nM | IC50 [26]: 48 nM | Ki [26]: 43 nM | IC50 [27]: 4010 nM | Ki [27]: 2120 nM
